Results taken from patent US20250186546A1, “Compositions and Methods to Prevent, Inhibit or Treat Autoimmune and Vascular Disease” (priority 2023, published 2025).

Experiments:
[1] = tested on: BMDMs; assay: Engulfment of ACs with increased rigidity by BMDMs; assay type: cell-based, mouse; settings: GA 10 nM, 1 minute, control and Wdfy3 knockout BMDMs
Method: AC preparation and labeling for efferocytosis assays: Jurkat cells (about 10 μm, a human T cell line) and mouse thymocytes (about 5 μm, isolated from mouse thymi) are treated with staurosporine for 3 hours to induce apoptosis. The method routinely yields greater than 90% Annexin V+ ACs (Shi et al., 2022). […] Mouse RBC are isolated from whole blood freshly and opsonized by IgG (Sosale et al., 2015). Storage at 4° C. for one-week or treatment by GA increases rigidity (Sosale et al., 2015). Mouse RBC are freshly prepared because commercial RBCs are often stored in cold conditions for shipment and thus likely already have increased rigidity. Cells will be labeled by TAMRA (10 μg/mL, 25 minutes, Invitrogen #C1171) that labels both DNA and protein (Shi et al., 2022; Bi et al., 2022). To assess uptake and acidification, ACs are fluorescently labeled by TAMRA (pH-insensitive) and pHrodo (20 ng/mL, 30 minutes, ThermoFisher #P35373, pH-sensitive and only fluoresces in acidic environments) (Shi et al., 2022; Bi et al., 2022). RBC are labeled by PKH26 which labels membrane lipids (Sigma PKH26GL-1KT) (Shi et al., 2022). Cell debris is prepared by passing labeled ACs 10 times through 27G needles (Puigdellivol et al., 2021). […] The % of macrophages that engulfed cargo will be quantified by FACS (Shi et al., 2022).

[2] = tested on: Jurkat cells and mouse thymocytes; assay: AC preparation for efferocytosis assays (Example 2); assay type: cell-based, human; settings: 3 hours
Method: AC preparation and labeling for efferocytosis assays: Jurkat cells (about 10 μm, a human T cell line) and mouse thymocytes (about 5 μm, isolated from mouse thymi) are treated with staurosporine for 3 hours to induce apoptosis. The method routinely yields greater than 90% Annexin V+ ACs (Shi et al., 2022). GA treatment at 10 mM for 1-minute leads to an increase in cell rigidity (Sosale et al., 2015). Mouse RBC are isolated from whole blood freshly and opsonized by IgG (Sosale et al., 2015). Storage at 4° C. for one-week or treatment by GA increases rigidity (Sosale et al., 2015). Mouse RBC are freshly prepared because commercial RBCs are often stored in cold conditions for shipment and thus likely already have increased rigidity. Cells will be labeled by TAMRA (10 μg/mL, 25 minutes, Invitrogen #C1171) that labels both DNA and protein (Shi et al., 2022; Bi et al., 2022). To assess uptake and acidification, ACs are fluorescently labeled by TAMRA (pH-insensitive) and pHrodo (20 ng/mL, 30 minutes, ThermoFisher #P35373, pH-sensitive and only fluoresces in acidic environments) (Shi et al., 2022; Bi et al., 2022). RBC are labeled by PKH26 which labels membrane lipids (Sigma PKH26GL-1KT) (Shi et al., 2022). Cell debris is prepared by passing labeled ACs 10 times through 27G needles (Puigdellivol et al., 2021). […] The % of macrophages that engulfed cargo will be quantified by FACS (Shi et al., 2022).

[3] = tested on: Jurkat cells; assay: Induction of apoptosis in Jurkat cells; assay type: cell-based, human; settings: 5 μg/mL, 3 hours
Method: Apoptotic Jurkat cells were generated by treating Jurkat cells with 5 μg/mL staurosporine in RPMI-1640 medium for 3 hours at a density of 2.5×10^6 cells/mL at 37° C., 5% CO2. The method routinely yields greater than 90% Annexin V^+ apoptotic Jurkat cells. After washing in 1×DPBS, apoptotic Jurkat cells were resuspended at a concentration of 2×10^7 cells/mL in Diluent C with either PKH67 (green fluorescence) or PKH26 (red fluorescence) per the manufacturer's instruction. After labeling, the cells were rinsed twice with DMEM basal medium containing 10% HI-FBS and immediately used for efferocytosis assay. For labeling with other fluorescent probes, ACs were resuspended at a density of 2.5×10^6 cells/mL in DMEM basal media and incubated with 20 ng/mL pHrodo red (Life Technologies) and/or Hoechst 33342 solution (20 mM, 1:10,000 dilution, Thermo Scientific) for 30 minutes, or NuclearMask Blue Stain solution (1:2000 dilution, Invitrogen) for 30 minutes. TAMRA staining was applied to ACs at a concentration of 2×10^7 cells/mL in DMEMbasal medium at 10 μg/mL for 25 minutes.

O=CCCCC=O [Glutaraldehyde]
engulfment of GA-treated (rigid) ACs by BMDMs [1]: increased engulfment | engulfment of GA-treated (rigid) ACs by BMDMs ([1]; listed as GA): more effective engulfment

CN[C@@H]1C[C@H]2O[C@@](C)([C@@H]1OC)n1c3ccccc3c3c4c(c5c6ccccc6n2c5c31)C(=O)NC4 [staurosporine]
Annexin V+ ACs [2]: greater than 90% | Annexin V+ apoptotic Jurkat cells [3]: greater than 90%
